{
  "source": "PubChem BioAssay (NCI)",
  "assay_in_all_cases": "NCI anticancer screen, dose series, 48 h",
  "key": {"786-0 renal": {"tested_on": "786-0 renal"}, "A498 renal": {"tested_on": "A498 renal"}, "A549 NSCLC": {"tested_on": "A549 NSCLC"}, "ACHN renal": {"tested_on": "ACHN renal"}, "BT-549 breast": {"tested_on": "BT-549 breast"}, "CAKI-1 renal": {"tested_on": "CAKI-1 renal"}, "COLO 205 colon": {"tested_on": "COLO 205 colon"}, "DU-145 prostate": {"tested_on": "DU-145 prostate"}, "EKVX NSCLC": {"tested_on": "EKVX NSCLC"}, "HCC-2998 colon": {"tested_on": "HCC-2998 colon"}, "HCT-116 colon": {"tested_on": "HCT-116 colon"}, "HCT-15 colon": {"tested_on": "HCT-15 colon"}, "HL-60(TB) leukemia": {"tested_on": "HL-60(TB) leukemia"}, "HOP-62 NSCLC": {"tested_on": "HOP-62 NSCLC"}, "HOP-92 NSCLC": {"tested_on": "HOP-92 NSCLC"}, "HS 578T breast": {"tested_on": "HS 578T breast"}, "HT29 colon": {"tested_on": "HT29 colon"}, "IGROV1 ovarian": {"tested_on": "IGROV1 ovarian"}, "K-562 leukemia": {"tested_on": "K-562 leukemia"}, "KM12 colon": {"tested_on": "KM12 colon"}, "LOX IMVI melanoma": {"tested_on": "LOX IMVI melanoma"}, "M14 melanoma": {"tested_on": "M14 melanoma"}, "MALME-3M melanoma": {"tested_on": "MALME-3M melanoma"}, "MCF7 breast": {"tested_on": "MCF7 breast"}, "MDA-MB-231 breast": {"tested_on": "MDA-MB-231 breast"}, "MDA-MB-435": {"tested_on": "MDA-MB-435"}, "MDA-N": {"tested_on": "MDA-N"}, "MOLT-4 leukemia": {"tested_on": "MOLT-4 leukemia"}, "NCI-H226 lung": {"tested_on": "NCI-H226 lung"}, "NCI-H23 lung": {"tested_on": "NCI-H23 lung"}, "NCI-H460 lung": {"tested_on": "NCI-H460 lung"}, "NCI-H522 lung": {"tested_on": "NCI-H522 lung"}, "NCI/ADR-RES ovarian": {"tested_on": "NCI/ADR-RES ovarian"}, "OVCAR-3 ovarian": {"tested_on": "OVCAR-3 ovarian"}, "OVCAR-4 ovarian": {"tested_on": "OVCAR-4 ovarian"}, "OVCAR-5 ovarian": {"tested_on": "OVCAR-5 ovarian"}, "OVCAR-8 ovarian": {"tested_on": "OVCAR-8 ovarian"}, "PC-3 prostate": {"tested_on": "PC-3 prostate"}, "RPMI-8226 leukemia": {"tested_on": "RPMI-8226 leukemia"}, "RXF 393 renal": {"tested_on": "RXF 393 renal"}, "SF-268 CNS": {"tested_on": "SF-268 CNS"}, "SF-295 CNS": {"tested_on": "SF-295 CNS"}, "SF-539 CNS": {"tested_on": "SF-539 CNS"}, "SK-MEL-2 melanoma": {"tested_on": "SK-MEL-2 melanoma"}, "SK-MEL-28 melanoma": {"tested_on": "SK-MEL-28 melanoma"}, "SK-MEL-5 melanoma": {"tested_on": "SK-MEL-5 melanoma"}, "SK-OV-3 ovarian": {"tested_on": "SK-OV-3 ovarian"}, "SN12C renal": {"tested_on": "SN12C renal"}, "SNB-19 CNS": {"tested_on": "SNB-19 CNS"}, "SNB-75 CNS": {"tested_on": "SNB-75 CNS"}, "SR leukemia": {"tested_on": "SR leukemia"}, "SW-620 colon": {"tested_on": "SW-620 colon"}, "T-47D breast": {"tested_on": "T-47D breast"}, "TK-10 renal": {"tested_on": "TK-10 renal"}, "U251 CNS": {"tested_on": "U251 CNS"}, "UACC-257 melanoma": {"tested_on": "UACC-257 melanoma"}, "UACC-62 melanoma": {"tested_on": "UACC-62 melanoma"}, "UO-31 renal": {"tested_on": "UO-31 renal"}},
  "note": "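Growth conditions: 96-well plates. Treatment: test compound, 48 hours, 5 concentrations. Analysis: linear interpolation between bracketing concentrations; unreached endpoints set to highest concentration. TGI marks complete inhibition of growth.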",
  "data": [
    {"smiles": "COC(=O)[C@]1(c2cc3ccccc3n2S(=O)(=O)c2ccccc2)CC2CN(C(C)=O)C1CC2=O", "note": "(stereo partly drawn)", "values": [
      {"measurement": "TGI", "setting": "786-0 renal", "value": 2.97, "unit": "µM"},
      {"measurement": "TGI", "setting": "A498 renal", "value": 21.4, "unit": "µM"},
      {"measurement": "TGI", "setting": "A549 NSCLC", "value": 13.1, "unit": "µM"},
      {"measurement": "TGI", "setting": "ACHN renal", "value": 3.97, "unit": "µM"},
      {"measurement": "TGI", "setting": "BT-549 breast", "value": 7.24, "unit": "µM"},
      {"measurement": "TGI", "setting": "CAKI-1 renal", "value": 7.79, "unit": "µM"},
      {"measurement": "TGI", "setting": "COLO 205 colon", "value": 7.29, "unit": "µM"},
      {"measurement": "TGI", "setting": "DU-145 prostate", "value": 11.7, "unit": "µM"},
      {"measurement": "TGI", "setting": "EKVX NSCLC", "value": 6.17, "unit": "µM"},
      {"measurement": "TGI", "setting": "HCC-2998 colon", "value": 14, "unit": "µM"},
      {"measurement": "TGI", "setting": "HCT-116 colon", "value": 4.2, "unit": "µM"},
      {"measurement": "TGI", "setting": "HCT-15 colon", "value": 9.06, "unit": "µM"},
      {"measurement": "TGI", "setting": "HL-60(TB) leukemia", "value": 4.64, "unit": "µM"},
      {"measurement": "TGI", "setting": "HOP-62 NSCLC", "value": 16.4, "unit": "µM"},
      {"measurement": "TGI", "setting": "HOP-92 NSCLC", "value": 16.5, "unit": "µM"},
      {"measurement": "TGI", "setting": "HS 578T breast", "value": "> 43.8", "unit": "µM"},
      {"measurement": "TGI", "setting": "HT29 colon", "value": 4.55, "unit": "µM"},
      {"measurement": "TGI", "setting": "IGROV1 ovarian", "value": 5.22, "unit": "µM"},
      {"measurement": "TGI", "setting": "K-562 leukemia", "value": 12.1, "unit": "µM"},
      {"measurement": "TGI", "setting": "KM12 colon", "value": 8.22, "unit": "µM"},
      {"measurement": "TGI", "setting": "LOX IMVI melanoma", "value": 3.8, "unit": "µM"},
      {"measurement": "TGI", "setting": "M14 melanoma", "value": 4.63, "unit": "µM"},
      {"measurement": "TGI", "setting": "MALME-3M melanoma", "value": 6.69, "unit": "µM"},
      {"measurement": "TGI", "setting": "MCF7 breast", "value": 3.37, "unit": "µM"},
      {"measurement": "TGI", "setting": "MDA-MB-231 breast", "value": 7.4, "unit": "µM"},
      {"measurement": "TGI", "setting": "MDA-MB-435", "value": 6.32, "unit": "µM"},
      {"measurement": "TGI", "setting": "MDA-N", "value": 9.32, "unit": "µM"},
      {"measurement": "TGI", "setting": "MOLT-4 leukemia", "value": 4.85, "unit": "µM"},
      {"measurement": "TGI", "setting": "NCI-H226 lung", "value": 10.4, "unit": "µM"},
      {"measurement": "TGI", "setting": "NCI-H23 lung", "value": 9.38, "unit": "µM"},
      {"measurement": "TGI", "setting": "NCI-H460 lung", "value": 10.9, "unit": "µM"},
      {"measurement": "TGI", "setting": "NCI-H522 lung", "value": 4.62, "unit": "µM"},
      {"measurement": "TGI", "setting": "NCI/ADR-RES ovarian", "value": "> 40.4", "unit": "µM"},
      {"measurement": "TGI", "setting": "OVCAR-3 ovarian", "value": 6.03, "unit": "µM"},
      {"measurement": "TGI", "setting": "OVCAR-4 ovarian", "value": 10.7, "unit": "µM"},
      {"measurement": "TGI", "setting": "OVCAR-5 ovarian", "value": 13.1, "unit": "µM"},
      {"measurement": "TGI", "setting": "OVCAR-8 ovarian", "value": 11.1, "unit": "µM"},
      {"measurement": "TGI", "setting": "PC-3 prostate", "value": 3.83, "unit": "µM"},
      {"measurement": "TGI", "setting": "RPMI-8226 leukemia", "value": 4.26, "unit": "µM"},
      {"measurement": "TGI", "setting": "RXF 393 renal", "value": 3.39, "unit": "µM"},
      {"measurement": "TGI", "setting": "SF-268 CNS", "value": 5.83, "unit": "µM"},
      {"measurement": "TGI", "setting": "SF-295 CNS", "value": 30.1, "unit": "µM"},
      {"measurement": "TGI", "setting": "SF-539 CNS", "value": 12.7, "unit": "µM"},
      {"measurement": "TGI", "setting": "SK-MEL-2 melanoma", "value": 7.52, "unit": "µM"},
      {"measurement": "TGI", "setting": "SK-MEL-28 melanoma", "value": 11.7, "unit": "µM"},
      {"measurement": "TGI", "setting": "SK-MEL-5 melanoma", "value": 14, "unit": "µM"},
      {"measurement": "TGI", "setting": "SK-OV-3 ovarian", "value": 21.7, "unit": "µM"},
      {"measurement": "TGI", "setting": "SN12C renal", "value": 8.11, "unit": "µM"},
      {"measurement": "TGI", "setting": "SNB-19 CNS", "value": 12.5, "unit": "µM"},
      {"measurement": "TGI", "setting": "SNB-75 CNS", "value": 12.3, "unit": "µM"},
      {"measurement": "TGI", "setting": "SR leukemia", "value": 5.12, "unit": "µM"},
      {"measurement": "TGI", "setting": "SW-620 colon", "value": "> 20.9", "unit": "µM"},
      {"measurement": "TGI", "setting": "T-47D breast", "value": 7.05, "unit": "µM"},
      {"measurement": "TGI", "setting": "TK-10 renal", "value": 23.4, "unit": "µM"},
      {"measurement": "TGI", "setting": "U251 CNS", "value": 3.08, "unit": "µM"},
      {"measurement": "TGI", "setting": "UACC-257 melanoma", "value": 7.8, "unit": "µM"},
      {"measurement": "TGI", "setting": "UACC-62 melanoma", "value": 3.27, "unit": "µM"},
      {"measurement": "TGI", "setting": "UO-31 renal", "value": 3.45, "unit": "µM"}
    ]}
  ]
}
